Here are results for 2 compounds from patent US20090098652A1, “SELF ASSEMBLING PEPTIDE SYSTEMS AND METHODS” (Northwestern University, priority 2007, published 2009).

Where a SMILES comes first, the peptide text is derived from it. The star is where a group is joined. Palmitoyl = CCCCCCCCCCCCCCCC(=O)*

One data set relates to P19 cells. As to conditions: flow cytometry; all tested concentrations.
In data set [1] the test system is P19 cells in suspension aggregates. The experiment in a line: Transfection of P19 suspension aggregates with GFP plasmid, read by qPCR and Western blot. The format is cell-based. As to conditions: comparison of PA system, peptide and Lipofectamine. An excerpt: In the figure, “peptide amphiphile” is the DNA-binding PA with sequence […](N^ε-palmitoyl) and “peptide” is a peptide with sequence […].
In some embodiments, the invention described here improves on this system by incorporating one or more peptides which are bioactive and direct the complex to the nucleus. It is designed, in some embodiments, to form an alpha helix which binds to the major groove of the double helix of DNA. In addition, it is a self-assembling peptide amphiphile (PA) which forms high aspect ratio nanostructures. When complexed with DNA, these nanostructures are, on average, smaller than the nanostructures produced by LIPOFECAMINE as determined by dynamic light scattering. The present invention is not limited to a particular mechanism. Indeed, an understanding of the mechanism is not necessary to practice the present invention. Nonetheless, it is contemplated that the system works by complexing and condensing the DNA through specific binding to the major groove and electrostatic screening. This DNA-PA complex is similar to the LIPOFECTAMINE complex, however it includes a peptide region containing a nuclear localization signal which directs the cell to move this complex through the cytoplasm and into the nucleus where the genes encoded in the DNA are subsequently expressed. […]

For the compound `CCCCCCCCCCCCCCCC(=O)NCCCC[C@H](NC(=O)[C@H](C)NC(=O)[C@H](C)NC(=O)[C@H](C)NC(=O)[C@H](CC(C)C)NC(=O)[C@H](CC(C)C)NC(=O)[C@H](CC(C)C)NC(=O)[C@H](CCCCN)NC(=O)[C@H](CC(N)=O)NC(=O)[C@@H](NC(=O)[C@H](C)NC(=O)[C@H](CO)NC(=O)[C@H](CCC(N)=O)NC(=O)[C@H](Cc1ccc(O)cc1)NC(=O)[C@@H](NC(=O)CNC(=O)[C@H](CC(C)C)NC(=O)[C@H](CCCNC(=N)N)NC(=O)[C@H](CCCCN)NC(=O)[C@H](C)NC(=O)[C@@H](NC(=O)[C@H](CCCCN)NC(=O)[C@@H](N)CCCNC(=N)N)[C@@H](C)O)C(C)C)[C@@H](C)CC)C(=O)O` [DNA-binding PA] (H-RKTAKRLGVYQSAINKLLLAAAK(Palmitoyl)-OH), the “toxicity to P19 cells” value in the data set with P19 cells is given as “nontoxic”.
Regarding RKTAKRLGVYQSAINK [peptide], the “transfection efficiency (in words)” value in data set [1] is “lower transfection efficiency”; in data set [1] (listed as peptide control) it was “poor results compared to both the lipofectamine system and the PA system”.
